Where a name gives a salt, the structure may show the parent alone.
Tested on: not given
Conditions: based on steady-state pharmacokinetics; cited from earlier work

Structure (SMILES)	plasma antibiotic threshold level
CN(C)[C@@H]1C(O)=C(C(N)=O)C(=O)[C@@]2(O)C(O)=C3C(=O)c4c(O)cccc4[C@@](C)(O)[C@H]3C[C@@H]12 [Tetracycline, reference compound]	0.5 µg/mL

Tested on: BALB/c 3T3 (CCL-163) cells
Conditions: not given

MPE	PIF 1	PIF 2	mean PIF2	Structure (SMILES)
0.170	5.17	12.87		CN(C)CC(=O)Nc1ccc2c(c1O)C(=O)C1=C(O)C3(O)C(=O)C(C(N)=O)=C(O)CC3CC1C2 (stereo not shown) [COL 309, 9-dimethylaminoacetamido-6-demethyl-6-deoxy-4-dedimethylaminotetracycline]
0.475	41.1	89.48		O=C(NCN1CCOCC1)C1=C(O)CC2CC3Cc4cccc(O)c4C(=O)C3=C(O)C2(O)C1=O (stereo not shown) [COL 314, 2-CONHCH2-morpholin-1-yl-6-demetlyl-6-deoxy-4-dedimethylaminotetracycline]
0.420				CC1c2cccc(O)c2C(=O)C2=C(O)C3(O)C(=O)C(C(=O)NCN4CCNCC4)=C(O)CC3C(O)C21 (stereo not shown) [COL 809, 2-CONHCH2-piperazin-1-yl-4-dedimethylaminodoxycycline]
0.276	15.8	35.30		O=C(NCN1CCNCC1)C1=C(O)CC2CC3Cc4cccc(O)c4C(=O)C3=C(O)C2(O)C1=O (stereo not shown) [COL 315, 2-CONHCH2-piperazin-1-yl-6-demethyl-6-deoxy-4-dedimethylaminotetracycline]
0.387	46.45			CC1c2cccc(O)c2C(=O)C2=C(O)C3(O)C(=O)C(C(=O)NCN4CCCCC4)=C(O)CC3C(O)C21 (stereo not shown) [COL 808, 2-CONHCH2-piperidin-1-yl-4-dedimethylaminodoxycycline]
0.462	80.27	58.22		O=C(NCN1CCCCC1)C1=C(O)CC2CC3Cc4cccc(O)c4C(=O)C3=C(O)C2(O)C1=O (stereo not shown) [COL 313, 2-CONHCH2-piperidin-1-yl-6-demethyl-6-deoxy-4-dedimethylaminotetracycline]
0.056	1.17			NC(=O)C1=C(O)CC2CC3Cc4c(N)ccc(O)c4C(=O)C3=C(O)C2(O)C1=O (stereo not shown) [COL 307, 7-amino-6-demethyl-6-deoxy-4-dedimethylaminotetracycline]
0.654	647	84.72		NC(=O)C1=C(O)C[C@@H]2C[C@@H]3Cc4cccc(O)c4C(=O)C3=C(O)[C@]2(O)C1=O [COL 3, 6-demethyl-6-deoxy-4-dedimethylaminotetracycline]
0.442	62.67	75.11		O=C(NCN1CCCC1)C1=C(O)CC2CC3Cc4cccc(O)c4C(=O)C3=C(O)C2(O)C1=O (stereo not shown) [COL 312, 2-CONHCH2-pyrrolidin-1-yl-6-demethyl-6-deoxy-4-dedimethylaminotetracycline]
0.382	40.4			CC1c2cccc(O)c2C(=O)C2=C(O)C3(O)C(=O)C(C(=O)NCN4CCCC4)=C(O)CC3C(O)C21 (stereo not shown) [COL 807, 2-CONHCH2-pyrrolidin-1-yl-4-dedimethylaminodoxycycline]
0.420				CC(=O)Nc1ccc2c(c1O)C(=O)C1=C(O)C3(O)C(=O)C(C(N)=O)=C(O)CC3CC1C2 (stereo not shown) [COL 305, 9-acetamido-6-demethyl-6-deoxy-4-dedimethylaminotetracycline]

Further lines, the molecule ahead of its results:

Structure (SMILES)	MPE	PIF 1	PIF 2	mean PIF2
Cc1c2c(c(O)c3c(O)cccc13)C(=O)C1C(=O)C(C(N)=O)=C(O)CC1C2 (stereo not drawn) [COL 9, 4-de(dimethylamino)-12α-deoxyanhydrotetracycline]	0.546			
CN(C)c1ccc(O)c2c1CC1CC3CC(O)=C(C(N)=O)C(=O)C3(O)C(O)=C1C2=O (stereo not shown) [COL 10, 4-dedimethylaminominocycline]	0.099	1.82	2.04	2.04
C[N+](C)(C)c1ccc(O)c2c1CC1CC3CC(O)=C(C(N)=O)C(=O)C3(O)C(O)=C1C2=O (stereo not shown) [COL 1001, 7-trimethylammonium-4-dedimethylaminosancycline]	0.025			
CC1(O)c2c(Cl)ccc(O)c2C(=O)C2=C(O)C3(O)C(=O)C(C(N)=O)=C(O)CC3CC21 (stereo not shown) [COL 4, 7-chloro-4-dedimethylaminotetracycline]	0.570			
CN(C)C1C(=O)C(C#N)=C(O)C2(O)C(=O)C3=C(O)c4c(O)cccc4C(C)(O)C3CC12 (stereo not shown) [COL 2, tetracyclinonitrile]	0.005			
CC1(O)c2cccc(O)c2C(=O)C2=C(O)C3(O)C(=O)C(C(N)=O)=C(O)C(O)C3CC21 (stereo not shown) [COL 6, 4-hydroxy-4-dedimethylaminotetracycline]	0.155			
CN(C)c1cc([N+](=O)[O-])c(O)c2c1CC1CC3CC(O)=C(C(N)=O)C(=O)C3(O)C(O)=C1C2=O (stereo not shown) [COL 1002, 9-nitro-4-dedimethylaminominocycline]	0.040	1.0	1.35	1.35
CC1c2cccc(O)c2C(=O)C2=C(O)C3(O)C(=O)C(C(N)=O)=C(O)CC3C(O)C21 (stereo not shown) [COL 8, 4-dedimethylaminodoxycycline]	0.703	165	82.61	
CC1(O)c2cccc(O)c2C(=O)C2=C(O)C3C(=O)C(C(N)=O)=C(O)CC3CC21 (stereo not drawn) [COL 7, 4-dedimethylamino-12α-deoxytetracycline]	0.531			
CC1(O)c2cccc(O)c2C(=O)C2=C(O)C3(O)C(=O)C(C(N)=O)=C(O)CC3CC21 (stereo not shown) [COL 1, 4-dedimethylaminotetracycline]	0.460			
CC1c2ccc(N)c(O)c2C(=O)C2=C(O)C3(O)C(=O)C(C(N)=O)=C(O)CC3C(O)C21 (stereo not shown) [COL 805, 9-amino-4-dedimethylaminodoxycycline]	0.022	1.0		
CCCCCCCCCCCCCCCC(=O)Nc1ccc2c(c1O)C(=O)C1=C(O)C3(O)C(=O)C(C(N)=O)=C(O)CC3CC1C2 (stereo not shown) [COL 311, 9-palmitamide-6-demethyl-6-deoxy-4-dedimethylaminotetracycline]	0.013	1.0		
CC(=O)Nc1ccc2c(c1O)C(=O)C1=C(O)C3(O)C(=O)C(C(N)=O)=C(O)CC3C(O)C1C2C (stereo not shown) [COL 801, 9-acetamido-4-dedimethylaminodoxycycline]	−0.001	1.0		
NC(=O)C1=C(O)CC2CC3Cc4ccc(N)c(O)c4C(=O)C3=C(O)C2(O)C1=O (stereo not shown) [COL 308, 9-amino-6-demethyl-6-deoxy-4-dedimethylaminotetracycline]	0.015	1.0		
NC(=O)C1=C(O)CC2CC3Cc4c([N+](=O)[O-])ccc(O)c4C(=O)C3=C(O)C2(O)C1=O (stereo not shown) [COL 302, 7-nitro-6-demethyl-6-deoxy-4-dedimethylaminotetracycline]	0.378	23.16	23.32	
CC1c2ccc(NC(=O)CN(C)C)c(O)c2C(=O)C2=C(O)C3(O)C(=O)C(C(N)=O)=C(O)CC3C(O)C21 (stereo not shown) [COL 802, 9-dimethylaminoacetamido-4-dedimethylaminodoxycycline]	−0.123	1.0		
CN(C)c1ccc2c(c1O)C(=O)C1=C(O)C3(O)C(=O)C(C(N)=O)=C(O)CC3CC1C2 (stereo not shown) [COL 306, 9-dimethylamino-6-demethyl-6-deoxy-4-dedimethylaminotetracycline]	0.038	1.64	1.56	
NC(=O)C1=C(O)CC2CC3Cc4ccc([N+](=O)[O-])c(O)c4C(=O)C3=C(O)C2(O)C1=O (stereo not shown) [COL 303, 9-nitro-6-demethyl-6-deoxy-4-dedimethylaminotetracycline]	0.309	5.27	13.82	
CC1c2ccc([N+](=O)[O-])c(O)c2C(=O)C2=C(O)C3(O)C(=O)C(C(N)=O)=C(O)CC3C(O)C21 (stereo not shown) [COL 804, 9-nitro-4-dedimethylaminodoxycycline]	0.003	1.0		
CCCCCCCCCCCCCCCC(=O)Nc1ccc2c(c1O)C(=O)C1=C(O)C3(O)C(=O)C(C(N)=O)=C(O)CC3C(O)C1C2C (stereo not shown) [COL 803, 9-palmitamide-4-dedimethylaminodoxycycline]	0.047			

Same assay, conditions: mouse

MPE	PIF 2	Structure (SMILES)	PIF 1
0.639	40.38	CN(C)CCCN1c2ccccc2Sc2ccc(Cl)cc21 [Chlorpromazine, reference compound]	
0.522	26.71	C[C@H]1c2cccc(O)c2C(=O)C2=C(O)[C@]3(O)C(=O)C(C(N)=O)=C(O)[C@@H](N(C)C)[C@@H]3[C@@H](O)[C@@H]21 [Doxycycline, 6α-deoxy-5-hydroxytetracycline, reference compound]	23.37

Structure (SMILES)	MPE	PIF 2	PIF 1
CN(C)[C@@H]1C(O)=C(C(N)=O)C(=O)[C@@]2(O)C(O)=C3C(=O)c4c(O)cccc4[C@@](C)(O)[C@H]3C[C@@H]12 [Tetracycline, reference compound]	0.340		5.38

Tested on: not given
Conditions: 250 mg every six hours over a twenty-four hour period; cited from earlier work

Structure (SMILES)	peak plasma concentration
CN(C)[C@@H]1C(O)=C(C(N)=O)C(=O)[C@@]2(O)C(O)=C3C(=O)c4c(O)cccc4[C@@](C)(O)[C@H]3C[C@@H]12 [tetracycline HCl]	approximately 3 μg/ml

Tested on: not given
Conditions: single dose of two 100 mg minocycline HCl tablets, adult humans; cited from earlier work

Structure (SMILES)	average minocycline serum level
CN(C)c1ccc(O)c2c1C[C@H]1C[C@H]3[C@H](N(C)C)C(O)=C(C(N)=O)C(=O)[C@@]3(O)C(O)=C1C2=O [minocycline HCl]	2.24 µg/mL
